According to patent publication US20240082212A1, “USE OF MDMA FOR TREATMENT OF STRESS-RELATED DISORDERS” (priority 2022, published 2024):
“And” between values parts separate entries of the source, which are not always exact repeats. Identical values can stand only once. “Also recorded” adds a separate entry of the source.

Key:
[1] = test system: CD (Sprague Dawley) rats; assay: Rat telemetry: heart rate, blood pressure, body temperature, activity after cumulative SC dosing; assay type: in vivo; conditions: for Rank Order Blood Pressures (Systolic, Diastolic, and Mean Arterial) Effects / Rank Order Body Temperature Effects / Rank Order General Activity Effects / Rank Order Heart Rate Measurement Effects: telemetry, cumulative SC dosing, dose groups stated in the value
Source text: Methods. A total of 42 adult male CD® (Sprague Dawley) rats (Charles River Laboratories) were surgically implanted with DSI radiotelemetry devices by personnel at Charles River Laboratories Raleigh, NC, per their test site SOPs. Telemetry devices supported continuous recording of temperature, activity, blood pressure and heart rate. Telemeterized rats were shipped to the Charles River Laboratories testing facility (Mattawan, MI) and acclimated to the environment for at least 1 week prior to experimentation. Animals were pair-housed in solid bottom cages with nonaromatic bedding. On the dosing day, animals were singly housed and then returned to the paired cohort following the dosing/telemetry recording phase. Diet (Lab Diet® Certified Rodent Diet #5CR4) and tap water via an automatic water system were available ad libitum, except during designated procedures. Temperature and humidity were maintained according to the Testing Facility SOP. Animals were randomized into treatment groups using a standard, by weight, measured value randomization procedure. Body weight was determined for each rat prior to dosing.
As illustrated in the Table, a total of 36 rats were included in the study. The vehicle and 2 test article doses were administered in a volume of 1 mL/kg to each of 3 groups of n=12 telemeterized rats via subcutaneous injection four times on a given day, followed by neurobehavioral evaluations. This series was repeated 3 times on study. Each group received all 3 dose levels of the applicable test or control article in ascending order with a 1-week washout between dose levels.
Mortality/cage side clinical observations were conducted for all study animals at least twice daily beginning upon receipt through termination, except on days of receipt and termination where frequency was at least once daily. Detailed clinical observations were conducted for all study animals prior to each of the four cumulative doses in a series. Individual body weights were conducted for all study animals at transfer, prior to randomization, on the day of dosing on each of the 3 cycles of dosing. The body weights recorded at transfer and prior to randomization are not reported but are maintained in the study file. Veterinary care was available throughout the course of the study, and animals were examined by the veterinary staff as needed based on clinical signs or other changes. All animals were provided with HydroGel the night prior to their respective dosing days to potentially mitigate any animal welfare issues related to fluid loss/dehydration.
Telemetry monitoring was conducted for all animals 2 hours prior to dosing and through to 7.5 hours following the last (4th) cumulative dose of each series, which included continuous data collection of body temperature, activity, heart rate, and blood pressure (systolic, diastolic, and mean arterial) using telemetry.
The total period of time over which the statistical analyses were conducted encompassed the entire dosing period for all animals (i.e., Dose 1 through 7.5 hour post-4th dose) in an effort to draw conclusions regarding the effects of the dosing procedure and cumulative changes by allowing comparisons between the cumulative dosing periods. The following statistical analyses were performed for each analysis segment.
All time-series data comparisons conducted via statistical analysis are relative to the control treatment and are based on the LSMean values. Additionally, the change values used for the statistical analysis were calculated using a baseline of the 2 hours of pre-dose data, prior to the first compound injection of the series. The raw change values were analyzed.

[2] = test system: cortical neurons; assay: Neurite outgrowth in embryonic rat cortical neuron cultures; assay type: cell-based; conditions: 10 μM, 3 days, vs 0.1% sterile water vehicle
Source text: Female Wistar rats of 17 days gestation were killed by cervical dislocation and the fetuses (typically 6 to 8 in number) were removed from the uteri. Fetal brains were placed in ice-cold medium of Leibovitz (L15, Gibco, France). Cortex was dissected and meninges were carefully removed. The cortical neurons were dissociated by trypsinization (trypsin-EDTA, Gibco) in the presence of DNAse I (Roche, France). The reaction was stopped by addition of Dulbecco's Modified Eagle Medium (DMEM; Gibco) with 10% of fetal bovine serum (FBS; Gibco). The suspension was triturated with a 10-ml pipette and a 21-gauge needle syringe and centrifuged. The pellet of dissociated cells was resuspended in a medium consisting of Neurobasal (Gibco) supplemented with 2% B27 supplement (Gibco), 0.5 mM L-Glutamine (Gibco), and an antibiotic-antimycotic mixture. Viable cells were counted in a Neubauer cytometer and cells were seeded in 96-well plates (Costar) precoated with poly-L-lysine at 10,000 cells/well. […] Stock solutions were prepared in sterile water at 10 mM and stored at −20° C. until used. Further dilutions were prepared in culture in the medium on the day of the treatment. 0.1% Sterile water was present in all tested conditions.
The experimental protocol was performed in two independent cultures (i.e., from two different pregnant rats). For each culture, each condition was tested in sextuplet (6 wells per condition per culture for a total of 12 wells per condition). […] After three days of plating and compound treatment (Day 3), cultures were fixed with paraformaldehyde in phosphate buffered saline at 4° C. (PBS, 4%, Sigma). All subsequent steps were performed at room temperature. Cells were successively permeabilized for 30 minutes using 0.1% triton, saturated with PBS containing 3% bovine serum albumin (BSA) and incubated for 1 hour with anti-beta III tubulin antibody (T5168, Sigma). […] Finally, nuclei were stained with 4′-6-diamidino-2-phenylindole (DAPI). After rinsing the cells with PBS, the plate was imaged and neurite networks were examined and analyzed using a High-Content Screening platform (CellInsight CXS, Thermo Scientific) with integrated Photometrics high-resolution fluorescent camera, Olympus objective (10×) and HCS Studio Cell Analysis Software. Approximately 2,000 neurons per well were analyzed using a validated cortex neuron outgrowth algorithm that utilizes parameters optimized for analysis of embryonic rat cortical neuron cultures. The HCS Studio Cell Analysis Software output included values for neurite total count (#), neurite total length (μm) and total number of branch points (#) for each of the 6 wells per culture. The evaluation of neurite outgrowth was performed using the average number of neurites per neuron (#), the average of total neurite length per neuron (μm) and the average number of branch points per neuron (#) across 12 wells. Data also was transformed to percent (%) of the average vehicle control value. Results were expressed as mean (±s.e.m.) of the transformed (% of vehicle control) data. Statistical analyses were performed on transformed percent of the average vehicle control data for each measure for each test article using one-way analysis of variance (Anova, StatView). Where applicable, Dunnett's test was used for multiple pairwise comparisons to the negative control (vehicle) condition. […] The level of significance was set at p value less than or equal to 0.05 (*p<0.05).

[3] = Rat brain monoamine and metabolite concentrations 1 week after cumulative SC dosing; conditions: for 5-HIAA mean brain concentration / 5-HT mean brain concentration: frontal cortex; for 5-HIAA mean brain concentration / 5-HT mean brain concentration / DA mean brain concentration / DOPAC mean brain concentration / HVA mean brain concentration: male rat; for DA mean brain concentration / DOPAC mean brain concentration / HVA mean brain concentration: striatum
[4] = maximum change, R-MDMA and racemic MDMA 10, 20 mg/kg/day, S-MDMA 5, 10 mg/kg/day, 4 hourly SC injections
[5] = racemic MDMA 20 mg/kg/day, S-MDMA 10 mg/kg/day, approximate
[6] = 1 week after 4 hourly SC injections of 2.5 mg/kg
[7] = 1 week after 4 hourly SC injections of 5 mg/kg
[8] = 1 week after 4 hourly SC injections of 5 mg/kg, 5 mg/kg
[9] = 1 week after 4 hourly SC injections of 10 mg/kg, N=2
[10] = 1 week after 4 hourly SC injections of 10 mg/kg, N=2, 10 mg/kg

CNC(C)Cc1ccc2c(c1)OCO2 (racemic) [Racemic MDMA, 3,4-methylenedioxymethamphetamine]
hemodynamic parameters (systolic/diastolic/mean arterial blood pressures and heart rate) ([1]; 4 hourly SC injections, cumulative doses 5, 10, or 20 mg/kg/day): dose-dependent blood pressure-increasing effects | body temperature response ([1]; S-MDMA 5, 10 mg/kg/day, racemic-MDMA 10, 20 mg/kg/day, 4 hourly SC injections): hyperthermic response | activity (implanted telemetry devices) ([1]; all cumulative doses (5, 10, or 20 mg/kg/day)): Activity-increasing effects | blood pressure increase [mean arterial pressure] [1, 4]: up to +46% | heart rate increase [1, 4]: up to +37% | peak body temperatures ([1]; overall mean magnitude of change, 4 hourly SC injections): 40.0 °C | period of significantly increased body temperature compared to R-MDMA (10 mg/kg/day) [1, 5]: 1-4 hours post initiation of dosing | period of significantly increased heart rate compared to R-MDMA (10 mg/kg/day) [1, 5]: 3-10 hours post initiation of dosing | period of significantly increased mean arterial blood pressure compared to R-MDMA (10 mg/kg/day) [1, 5]: 1-3 hours post initiation of dosing | period of significantly increased systolic blood pressure compared to R-MDMA (10 mg/kg/day) [1, 5]: 1-3 hours post initiation of dosing | Rank Order Blood Pressures (Systolic, Diastolic, and Mean Arterial) Effects ([1]; listed as Rac-MDMA): R-MDMA (20 mg/kg/day) < S-MDMA (10 mg/kg/day) < Rac-MDMA (20 mg/kg/day); also recorded: Rac-MDMA (0 mg/kg/day) < Rac-MDMA (10 mg/kg/day) < Rac-MDMA (20 mg/kg/day); also recorded: R-MDMA (10 mg/kg/day) < S-MDMA (10 mg/kg/day) < Rac-MDMA (20 mg/kg/day) | Rank Order Body Temperature Effects ([1]; listed as Rac-MDMA): R-MDMA (20 mg/kg/day) < S-MDMA (10 mg/kg/day) < Rac-MDMA (20 mg/kg/day); also recorded: Rac-MDMA (0 mg/kg/day) < Rac-MDMA (10 mg/kg/day) < Rac-MDMA (20 mg/kg/day); also recorded: R-MDMA (10 mg/kg/day) < S-MDMA (10 mg/kg/day) < Rac-MDMA (20 mg/kg/day) | Rank Order General Activity Effects ([1]; listed as Rac-MDMA): R-MDMA (20 mg/kg/day) < S-MDMA (10 mg/kg/day) < Rac-MDMA (20 mg/kg/day); also recorded: Rac-MDMA (0 mg/kg/day) < Rac-MDMA (10 mg/kg/day) < Rac-MDMA (20 mg/kg/day); also recorded: R-MDMA (10 mg/kg/day) < S-MDMA (10 mg/kg/day) < Rac-MDMA (20 mg/kg/day) | Rank Order Heart Rate Measurement Effects ([1]; listed as Rac-MDMA): R-MDMA (20 mg/kg/day) < S-MDMA (10 mg/kg/day) < Rac-MDMA (20 mg/kg/day); also recorded: Rac-MDMA (0 mg/kg/day) < Rac-MDMA (10 mg/kg/day) < Rac-MDMA (20 mg/kg/day); also recorded: R-MDMA (10 mg/kg/day) < S-MDMA (10 mg/kg/day) < Rac-MDMA (20 mg/kg/day) | Rank Order Blood Pressures (Systolic, Diastolic, and Mean Arterial) Effects ([1]; listed as Rac.-MDMA): R-MDMA (10 mg/kg/day) < S-MDMA (5 mg/kg/day) < Rac.-MDMA (10 mg/kg/day) | Rank Order Body Temperature Effects ([1]; listed as Rac.-MDMA): R-MDMA (10 mg/kg/day) < S-MDMA (5 mg/kg/day) < Rac.-MDMA (10 mg/kg/day) | Rank Order General Activity Effects ([1]; listed as Rac.-MDMA): R-MDMA (10 mg/kg/day) < S-MDMA (5 mg/kg/day) < Rac.-MDMA (10 mg/kg/day) | Rank Order Heart Rate Measurement Effects ([1]; listed as Rac.-MDMA): R-MDMA (10 mg/kg/day) < S-MDMA (5 mg/kg/day) < Rac.-MDMA (10 mg/kg/day) | neurite number (#) [2]: significantly increased | neurite total length (μm) [2]: significantly increased | total number of branch points (#) [2]: significantly increased | frontal cortex 5-HT (serotonin) compared to vehicle ([3]; cumulative SC, 5 mg/kg/injection, 1 week after dosing): significantly reduced frontal cortex 5-HT concentrations | 5-HIAA mean brain concentration [3, 6]: 368.17 ng/g | 5-HT mean brain concentration [3, 6]: 183.90 ng/g | 5-HIAA mean brain concentration [3, 7]: 234.63 ng/g | 5-HT mean brain concentration [3, 8]: 88.38 ng/g and 88.38 b** n* p* ng/g | 5-HIAA mean brain concentration [3, 9]: 235.00 ng/g | 5-HT mean brain concentration [3, 9]: 100.85 ng/g | DA mean brain concentration [3, 6]: 5956.67 ng/g | DOPAC mean brain concentration [3, 6]: 1811.00 ng/g | HVA mean brain concentration [3, 6]: 706.83 ng/g | DA mean brain concentration [3, 7]: 5190.63 ng/g | HVA mean brain concentration [3, 7]: 577.00 ng/g | DOPAC mean brain concentration [3, 8]: 1962.75 ng/g and 1962.75 h** ng/g | DA mean brain concentration [3, 9]: 7405.00 ng/g | DOPAC mean brain concentration [3, 10]: 2015.00 ng/g and 2015.00 h* ng/g | HVA mean brain concentration [3, 10]: 923.50 ng/g and 923.50 d**h* ng/g
